Measured values published in patent US20240148821A1, “PHARMACEUTICAL USE OF CYCLIC PEPTIDE COMPOUND” (CHUGAI SEIYAKU KABUSHIKI KAISHA, priority 2021, published 2024).
Numbered stars: 1 amine (or outer) side, 2 acyl side, 3 side chain; on linkers, the order of the positions; unused ones are H or OH. Bridge positions count the residues as written; N and C are the ends. Square brackets hold non-standard residues; d marks the D form. Peptide text beside a SMILES is read from it. * marks the point of attachment. hPhe(3,5-F2-4-CF3) = N[C@@H](CCc1cc(F)c(C(F)(F)F)c(F)c1)C(=O)O; hPhe(3-Cl-4-CF3) = N[C@@H](CCc1ccc(C(F)(F)F)c(Cl)c1)C(=O)O; hPhe(3-F,4-CF3) = N[C@@H](CCc1ccc(C(F)(F)F)c(F)c1)C(=O)O; NMePhe(4-CF3) = CN[C@@H](Cc1ccc(C(F)(F)F)cc1)C(=O)O; Pro(trans-4-Ph) = O=C(O)[C@@H]1C[C@@H](c2ccccc2)CN1; X102 = O=C([C@H](CCOc1ccc(Cl)cc1)N[*:1])[*:2]; NMePhe(4-Cl) = CN[C@@H](Cc1ccc(Cl)cc1)C(=O)O; NEtPhe(2-Cl) = CCN[C@@H](Cc1ccccc1Cl)C(=O)O; NMePhe(4-Me) = CN[C@@H](Cc1ccc(C)cc1)C(=O)O; NMedβ3hAla = C[C@H](CC(=O)[*:2])N(C)[*:1]; NMeGly(cPent) = CN[C@H](C(=O)O)C1CCCC1; Phe(4-Me) = Cc1ccc(C[C@H](N)C(=O)O)cc1; NMe3Pal = CN[C@@H](Cc1cccnc1)C(=O)O; NMeCha = CN[C@@H](CC1CCCCC1)C(=O)O; X82 = O=C(CN(CCC1CNC1)[*:1])[*:2]; Hyp = O=C(O)[C@@H]1C[C@@H](O)CN1; NMeChg = CN[C@H](C(=O)O)C1CCCCC1; NMeF = CN[C@@H](Cc1ccccc1)C(=O)O; NMeI = CC[C@H](C)[C@H](NC)C(=O)O; N(CH2CH2)2CF2 = FC1(F)CCN(*)CC1; NMeD = CN[C@@H](CC(=O)O)C(=O)O; NMeL = CN[C@@H](CC(C)C)C(=O)O; NMeV = CN[C@H](C(=O)O)C(C)C; d(β3hA) = C[C@@H](N)CC(=O)O; NMeS = CN[C@@H](CO)C(=O)O; Morpholide = C1CN(*)CCO1; NMeA = CN[C@@H](C)C(=O)O; NMeAib = CNC(C)(C)C(=O)O; Piperidide = C1CCN(*)CC1; dNMeA = CN[C@H](C)C(=O)O; Ac5c = NC1(C(=O)O)CCCC1; Aze = O=C(O)[C@@H]1CCN1; Sar = CNCC(=O)O; Propyl = CCC*

Molecular target: protein-protein interaction between Kras and SOS1 (biotin-tagged human Kras loaded with GDP, His-tagged human SOS1) (Homo sapiens (Human), UniProt P01116, G12D)
Assay: Protein-protein interaction inhibition between Kras and SOS1 (KrasG12D-SOS PPI) using AlphaScreen;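 further: kras produced in E. coli, Ni-coupled donor beads and streptavidin acceptor beads, excitation 680 nm with emission detected at 520–620 nm via singlet oxygen transfer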
Type: biochemical
Conditions: not given

| Structure (SMILES) | IC50 [nM] |
| --- | --- |
| CC[C@H](C)[C@@H]1NC(=O)[C@H](CC(C)C)N(C)C(=O)C[C@@H](C(=O)N(C)C)N(C)C(=O)[C@H](C2CCCC2)N(C)C(=O)C2(CCCC2)NC(=O)[C@H](CC(=O)N2CCOCC2)N(C)C(=O)[C@H](CCc2ccc(C(F)(F)F)c(Cl)c2)NC(=O)CN(C)C(=O)[C@H](CC2CCCCC2)N(C)C(=O)[C@@H]2CCN2C(=O)[C@H](C)N(C)C1=O [Compound 2109] ([NMeL]I[NMeA][Aze][NMeCha][Sar][hPhe(3-Cl-4-CF3)][NMeD](Morpholide)[Ac5c][NMeGly(cPent)][NMeD]-NMe2; lactam N-11) | 1.8 |

Same assay, conditions: AlphaScreen; biotin-tagged human Kras loaded with GDP, His-tagged human SOS1; read-out: KRAS G12D-SOS PPI IC50

| Structure (SMILES) | IC50 [nM] |
| --- | --- |
| CC[C@H](C)[C@@H]1NC(=O)[C@H](CC(C)C)N(C)C(=O)C[C@@H](C)NC(=O)[C@H](C(C)C)N(C)C(=O)C2(CCCC2)NC(=O)[C@H](CC(=O)N2CCC(F)(F)CC2)N(C)C(=O)[C@H](CCc2ccc(C(F)(F)F)c(Cl)c2)NC(=O)CN(C)C(=O)[C@H](CC2CCCCC2)N(C)C(=O)CN(C)C(=O)CN(C)C1=O [Compound 452] (cyclo([Ac5c][NMeV][d(β3hA)][NMeL]I[Sar][Sar][NMeCha][Sar][hPhe(3-Cl-4-CF3)][NMeD](N(CH2CH2)2CF2))) | 80 |
| CC[C@H](C)[C@@H]1NC(=O)[C@H](CC(C)C)N(C)C(=O)C[C@@H](C(=O)N(C)C)N(C)C(=O)[C@H](C2CCCC2)N(C)C(=O)C2(CCCC2)NC(=O)CN(CCC2CNC2)C(=O)[C@H](CCc2ccc(C(F)(F)F)c(F)c2)NC(=O)CN(C)C(=O)[C@H](CC2CCCCC2)N(C)C(=O)[C@@H]2CCN2C(=O)[C@H](C)N(C)C1=O [Compound 2182, (3S,6S,9S,13S,16S,25S,31S,34S)-23-[2-(azetidin-3-yl)ethyl]-31-(cyclohexylmethyl)-16-cyclopentyl-25-[2-[3-fluoro-4-(trifluoromethyl)phenyl]ethyl]-9-isobutyl-N,N,3,4,10,14,17,29,32-nonamethyl-6-[(1S)-1-methylpropyl]-2,5,8,11,15,18,21,24,27,30,33-undecaoxo-spiro[1,4,7,10,14,17,20,23,26,29,32-undecazabicyclo[32.2.0]hexatriacontane-19,1′-cyclopentane]-13-carboxamide] ([NMeL]I[NMeA][Aze][NMeCha][Sar][hPhe(3-F,4-CF3)][X82][Ac5c][NMeGly(cPent)][NMeD]-NMe2; lactam N-11) | 3.6 |
| CC[C@H](C)[C@@H]1NC(=O)[C@H](CC(C)C)N(C)C(=O)C[C@@H](C)N(C)C(=O)[C@H](C2CCCCC2)N(C)C(=O)C2(CCCC2)NC(=O)[C@@H]2CCCN2C(=O)[C@H](CCc2cc(F)c(C(F)(F)F)c(F)c2)NC(=O)CN(C)C(=O)[C@H](Cc2ccc(C(F)(F)F)cc2)N(C)C(=O)[C@@H]2CCN2C(=O)[C@H](C)N(C)C1=O [Compound 39] (cyclo([Ac5c][NMeChg][NMedβ3hAla][NMeL]I[NMeA][Aze][NMePhe(4-CF3)][Sar][hPhe(3,5-F2-4-CF3)]P)) | 11 |
| CC[C@H](C)[C@@H]1NC(=O)[C@H](C)N(C)C(=O)C[C@@H](C(=O)N2CCCCC2)N(C)C(=O)[C@H](C2CCCCC2)N(C)C(=O)C2(CCCC2)NC(=O)[C@@H]2CCCN2C(=O)[C@H](CCOc2ccc(Cl)cc2)NC(=O)CN(C)C(=O)[C@H](CC2CCCCC2)N(C)C(=O)CN(C)C(=O)CN(C)C1=O [Compound 2040, (3S,9S,18S,21S,25S,28S,34S)-3-[2-(4-chlorophenoxy)ethyl]-28-cyclohexyl-9-(cyclohexylmethyl)-7,10,13,16,21,22,26,29-octamethyl-18-[(1S)-1-methylpropyl]-25-(piperidine-1-carbonyl)spiro[1,4,7,10,13,16,19,22,26,29,32-undecazabicyclo[32.3.0]heptatriacontane-31,1-cyclopentane]-2,5,8,11,14,17,20,23,27,30,33-undecone] ([NMeA]I[Sar][Sar][NMeCha][Sar][X102]P[Ac5c][NMeChg][NMeD]-Piperidide; lactam N-11) | 150 |
| CC[C@H](C)[C@@H]1NC(=O)[C@H](CC(C)C)N(C)C(=O)C[C@@H](C)N(C)C(=O)[C@H](CC(C)C)NC(=O)C(C)(C)N(C)C(=O)[C@H](CC(C)C)NC(=O)[C@H](CCc2ccc(C(F)(F)F)c(Cl)c2)NC(=O)[C@@H](C)N(C)C(=O)[C@H](Cc2ccc(C)cc2)N(C)C(=O)CN(C)C(=O)CN(C)C1=O [Compound 1384] (cyclo(I[Sar][Sar][NMePhe(4-Me)][dNMeA][hPhe(3-Cl-4-CF3)]L[NMeAib]L[NMedβ3hAla][NMeL])) | 230 |
| CC[C@H](C)[C@@H]1NC(=O)[C@H](C)N(C)C(=O)C[C@@H](C)NC(=O)[C@H](C(C)C)N(C)C(=O)C2(CCCC2)NC(=O)[C@@H]2CCCN2C(=O)[C@H](CCc2ccc(C(F)(F)F)c(Cl)c2)NC(=O)[C@@H](C)N(C)C(=O)[C@H](CC2CCCCC2)N(C)C(=O)[C@@H]2CCCN2C(=O)[C@@H]2CCN2C1=O [Compound 2009] (cyclo([Ac5c][NMeV][d(β3hA)][NMeA]I[Aze]P[NMeCha][dNMeA][hPhe(3-Cl-4-CF3)]P)) | 82 |
| CCO[C@@H]1C[C@H]2C(=O)NC3(CCCC3)C(=O)N(C)[C@@H](CC(C)C)C(=O)N(C)[C@H](C)CC(=O)N(C)[C@@H](CC(C)C)C(=O)N[C@@H]([C@@H](C)CC)C(=O)N(C)CC(=O)N(C)CC(=O)N(C)[C@@H](CC3CCCCC3)C(=O)N(C)CC(=O)N[C@@H](CCc3ccc(C(F)(F)F)c(Cl)c3)C(=O)N2C1 [Compound 1851] (cyclo([Ac5c][NMeL][NMedβ3hAla][NMeL]I[Sar][Sar][NMeCha][Sar][hPhe(3-Cl-4-CF3)][Hyp](Et))) | 2.5 |
| CCCOC[C@H]1C(=O)N(C)CC(=O)N[C@@H](CCc2ccc(C(F)(F)F)c(F)c2)C(=O)N2CCC[C@H]2C(=O)NC2(CCCC2)C(=O)N(C)[C@@H]([C@@H](C)CC)C(=O)N(C)[C@H](C)CC(=O)N(C)[C@@H](CC(C)C)C(=O)N[C@@H]([C@@H](C)CC)C(=O)N(C)[C@@H](C)C(=O)N2CC[C@H]2C(=O)N1C [Compound 694] (cyclo([Ac5c][NMeI][NMedβ3hAla][NMeL]I[NMeA][Aze][NMeS](Propyl)[Sar][hPhe(3-F,4-CF3)]P)) | 14 |
| CC[C@H](C)[C@@H]1NC(=O)[C@H](C)N(C)C(=O)C[C@@H](C(=O)N2CCCCC2)N(C)C(=O)[C@H](C2CCCCC2)N(C)C(=O)C2(CCCC2)NC(=O)[C@H](Cc2cccnc2)N(C)C(=O)[C@H](CCc2ccc(C(F)(F)F)c(Cl)c2)NC(=O)CN(C)C(=O)[C@H](CC2CCCCC2)N(C)C(=O)CN(C)C(=O)CN(C)C1=O [Compound 1012] ([NMeA]I[Sar][Sar][NMeCha][Sar][hPhe(3-Cl-4-CF3)][NMe3Pal][Ac5c][NMeChg][NMeD]-Piperidide; lactam N-11) | 1.2 |
| CC[C@H](C)[C@@H]1NC(=O)[C@H](CC(C)C)N(C)C(=O)C[C@@H](C)NC(=O)[C@H](C2CCCC2)N(C)C(=O)C2(CCCC2)NC(=O)[C@@H]2CCCN2C(=O)[C@H](CCc2ccc(C(F)(F)F)c(Cl)c2)NC(=O)CN(C)C(=O)[C@H](CC2CCCCC2)N(C)C(=O)[C@@H]2CCN2C(=O)CN(C)C1=O [Compound 1499] (cyclo([Ac5c][NMeGly(cPent)][d(β3hA)][NMeL]I[Sar][Aze][NMeCha][Sar][hPhe(3-Cl-4-CF3)]P)) | 19 |
| CC[C@H](C)[C@@H]1NC(=O)[C@H](C)N(C)C(=O)C[C@@H](C)NC(=O)[C@H](CC(C)C)N(C)C(=O)[C@H](Cc2ccccc2)N(C)C(=O)[C@H](CC(C)C)NC(=O)[C@H](CCc2ccc(C(F)(F)F)c(Cl)c2)NC(=O)CN(C)C(=O)[C@H](Cc2ccc(Cl)cc2)N(C)C(=O)CN(C)C(=O)CN(C)C1=O [Compound 2088] (cyclo(I[Sar][Sar][NMePhe(4-Cl)][Sar][hPhe(3-Cl-4-CF3)]L[NMeF][NMeL][d(β3hA)][NMeA])) | 30 |
| CC[C@H](C)[C@@H]1NC(=O)[C@H](CC(C)C)N(C)C(=O)C[C@@H](C(=O)N(C)C)N(C)C(=O)[C@H]([C@@H](C)CC)N(C)C(=O)C2(CCCC2)NC(=O)[C@H](Cc2ccccc2Cl)N(CC)C(=O)[C@H](CCc2ccc(C(F)(F)F)c(Cl)c2)NC(=O)CN(C)C(=O)[C@H](Cc2ccc(C)cc2)N(C)C(=O)[C@@H]2CCN2C(=O)[C@H](C)N(C)C1=O [Compound 2165] ([NMeL]I[NMeA][Aze][NMePhe(4-Me)][Sar][hPhe(3-Cl-4-CF3)][NEtPhe(2-Cl)][Ac5c][NMeI][NMeD]-NMe2; lactam N-11) | 220 |
| CC[C@H](C)[C@@H]1NC(=O)[C@H](CC(C)C)N(C)C(=O)C[C@@H](C(=O)N(C)C)N(C)C(=O)[C@H](C(C)C)N(C)C(=O)C2(CCCC2)NC(=O)[C@@H]2CCCN2C(=O)[C@H](CCc2ccc(C(F)(F)F)c(Cl)c2)NC(=O)CN(C)C(=O)[C@H](Cc2ccc(C)cc2)N(C)C(=O)[C@@H]2CCN2C(=O)[C@H](C)N(C)C1=O [Compound 1653] ([NMeL]I[NMeA][Aze][NMePhe(4-Me)][Sar][hPhe(3-Cl-4-CF3)]P[Ac5c][NMeV][NMeD]-NMe2; lactam N-11) | 0.89 |
| CC[C@H](C)[C@@H]1NC(=O)[C@H](CC(C)C)N(C)C(=O)C[C@@H](C(=O)N2CCCCC2)N(C)C(=O)[C@H](C2CCCCC2)N(C)C(=O)C2(CCCC2)NC(=O)[C@@H]2C[C@@H](c3ccccc3)CN2C(=O)[C@H](CCc2ccc(C(F)(F)F)c(Cl)c2)NC(=O)CN(C)C(=O)[C@H](CC2CCCCC2)N(C)C(=O)CN(C)C(=O)CN(C)C1=O [Compound 90] ([NMeL]I[Sar][Sar][NMeCha][Sar][hPhe(3-Cl-4-CF3)][Pro(trans-4-Ph)][Ac5c][NMeChg][NMeD]-Piperidide; lactam N-11) | 5 |
| CC[C@H](C)[C@@H]1NC(=O)[C@H](CC(C)C)N(C)C(=O)C[C@@H](C(=O)N(C)C)N(C)C(=O)[C@H]([C@@H](C)CC)N(C)C(=O)[C@H](C(C)C)NC(=O)[C@@H]2CCCN2C(=O)[C@H](CCc2ccc(C(F)(F)F)c(Cl)c2)NC(=O)CN(C)C(=O)[C@H](Cc2ccc(C)cc2)NC(=O)[C@@H]2CCN2C(=O)[C@H](C)N(C)C1=O [Compound 660] ([NMeL]I[NMeA][Aze][Phe(4-Me)][Sar][hPhe(3-Cl-4-CF3)]PV[NMeI][NMeD]-NMe2; lactam N-11) | 210 |
